The source made the active and inactive calls. No cut-off for these calls is given here.
Assays:
Mus musculus [1] = assay: Antiinflammatory activity in ICR male mouse assessed as reduction in compound 48/80-induced mortality rate at 20 mg/kg, ip dosed 1 hr prior to anaphylactic shock measured for 1 hr
[2] = Effect on JNK level in HMC1 cells at 12.5 to 50 uM pretreated for 30 mins followed by addition of PMACI incubated for 15 mins by Western blot analysis; type: cell-based; details: human, hmc1, 0.25 h
[3] = target: MAP kinase p38 (Homo sapiens) (UniProt O15264+Q15759+Q16539+P53778); assay: Inhibition of PMACI-induced phosphorylation of p38 in HMC1 cells at 12.5 to 50 uM pretreated for 30 mins followed by addition of PMACI incubated for 15 mins by Western blot analysis
[4] = Effect on ERK level in HMC1 cells at 12.5 to 50 uM pretreated for 30 mins followed by addition of PMACI incubated for 15 mins by Western blot analysis; type: cell-based; details: human, hmc1, 0.25 h
HMC1 [5] = assay: Antiinflammatory activity in HMC1 cells assessed as suppression of PMACI-induced TNF-alpha production pretreated for 30 mins followed by addition of PMACI incubated for 24 hrs by enzyme immunoassay; details: Homo sapiens
[6] = target: T1, NF-kappa-B inhibitor alpha (Homo sapiens) (UniProt P25963); assay: Inhibition of PMACI-induced phosphorylation of IkappaB-alpha in HMC1 cells at 12.5 to 50 uM pretreated for 30 mins followed by addition of PMACI incubated for 15 mins by Western blot analysis
T1 sequence (whole entry): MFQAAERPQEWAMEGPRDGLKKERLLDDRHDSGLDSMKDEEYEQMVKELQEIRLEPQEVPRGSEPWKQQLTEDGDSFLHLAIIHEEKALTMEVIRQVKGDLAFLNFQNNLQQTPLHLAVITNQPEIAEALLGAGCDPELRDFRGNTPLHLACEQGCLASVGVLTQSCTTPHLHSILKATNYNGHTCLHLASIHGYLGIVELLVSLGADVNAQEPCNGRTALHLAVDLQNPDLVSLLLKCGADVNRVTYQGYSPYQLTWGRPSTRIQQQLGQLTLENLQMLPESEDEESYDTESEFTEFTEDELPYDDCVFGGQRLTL

HMC1 [7] = assay: Antiinflammatory activity in HMC1 cells assessed as suppression of PMACI-induced TNF-alpha mRNA expression pretreated for 30 mins followed by addition of PMACI incubated for 6 hrs by qRT-PCR analysis; details: Homo sapiens
HMC1 [8] = assay: Antiinflammatory activity in HMC1 cells assessed as suppression of PMACI-induced IL-1beta mRNA expression pretreated for 30 mins followed by addition of PMACI incubated for 6 hrs by qRT-PCR analysis; details: Homo sapiens
[9] = target: T1, NF-kappa-B inhibitor alpha (Homo sapiens); assay: Inhibition of PMACI-induced degradation of IkappaB-alpha in HMC1 cells at 12.5 to 50 uM pretreated for 30 mins followed by addition of PMACI incubated for 15 mins by Western blot analysis
[10] = Effect on p38 level in HMC1 cells at 12.5 to 50 uM pretreated for 30 mins followed by addition of PMACI incubated for 15 mins by Western blot analysis; type: ADME, cell-based; details: human, hmc1, 0.25 h
[11] = target: RAC-alpha serine/threonine-protein kinase (Homo sapiens) (UniProt P31749); assay: Inhibition of PMACI-induced phosphorylation of Akt at […] in HMC1 cells at 12.5 to 50 uM pretreated for 30 mins followed by addition of PMACI incubated for 5 mins by Western blot analysis
RAC-alpha serine/threonine-protein kinase (Homo sapiens), sequence (P31749 whole entry): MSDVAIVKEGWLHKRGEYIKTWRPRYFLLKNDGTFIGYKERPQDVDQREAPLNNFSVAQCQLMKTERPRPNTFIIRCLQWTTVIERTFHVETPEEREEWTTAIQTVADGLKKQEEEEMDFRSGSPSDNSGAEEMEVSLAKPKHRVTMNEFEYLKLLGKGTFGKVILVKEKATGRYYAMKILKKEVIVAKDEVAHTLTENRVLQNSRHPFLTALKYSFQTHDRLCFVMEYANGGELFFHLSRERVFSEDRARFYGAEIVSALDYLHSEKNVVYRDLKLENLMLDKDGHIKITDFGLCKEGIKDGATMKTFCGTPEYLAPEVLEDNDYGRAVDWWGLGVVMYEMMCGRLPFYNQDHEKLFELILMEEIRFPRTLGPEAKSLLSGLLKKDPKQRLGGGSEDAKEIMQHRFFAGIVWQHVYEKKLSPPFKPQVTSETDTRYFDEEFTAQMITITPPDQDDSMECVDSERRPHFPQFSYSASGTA

[12] = Effect on Akt level in HMC1 cells at 12.5 to 50 uM pretreated for 30 mins followed by addition of PMACI incubated for 5 mins by Western blot analysis; type: ADME, cell-based; details: human, hmc1, 5 min
HMC1 [13] = assay: Antiinflammatory activity in HMC1 cells assessed as suppression of PMACI-induced IL-6 production pretreated for 30 mins followed by addition of PMACI incubated for 24 hrs by enzyme immunoassay; details: Homo sapiens
[14] = Cytotoxicity against HMC1 cells at 6.25 to 50 uM after 24 hrs by MTT assay; type: cell-based; details: human, hmc1, 24 h
HMC1 [15] = assay: Inhibition of PMACI-induced phosphorylation of ERK in HMC1 cells at 12.5 to 50 uM pretreated for 30 mins followed by addition of PMACI incubated for 15 mins by Western blot analysis; details: Homo sapiens
HMC1 [16] = assay: Antiinflammatory activity in HMC1 cells assessed as suppression of PMACI-induced IL-1beta production pretreated for 30 mins followed by addition of PMACI incubated for 24 hrs by enzyme immunoassay; details: Homo sapiens
[17] = Effect on IKKalpha/beta level in HMC1 cells at 12.5 to 50 uM pretreated for 30 mins followed by addition of PMACI incubated for 15 mins by Western blot analysis; type: ADME, cell-based; details: human, hmc1, 0.25 h
Mus musculus [18] = assay: Antiinflammatory activity in ICR male mouse assessed as reduction in compound 48/80-induced serum histamine level at 20 mg/kg, ip dosed 1 hr prior to anaphylactic shock by enzymeimmunoassay
HMC1 [19] = assay: Antiinflammatory activity in HMC1 cells assessed as suppression of pro-caspase-1 degradation pretreated for 30 mins followed by addition of PMACI incubated for 15 mins by Western blot analysis; details: Homo sapiens
[20] = target: Inhibitor of NF-kappa-B kinase alpha/beta (Homo sapiens) (UniProt O14920+O15111); assay: Inhibition of PMACI-induced phosphorylation of IKKalpha/beta in HMC1 cells at 12.5 to 50 uM pretreated for 30 mins followed by addition of PMACI incubated for 15 mins by Western blot analysis
HMC1 [21] = assay: Antiinflammatory activity in HMC1 cells assessed as suppression of PMACI-induced IL-6 mRNA expression pretreated for 30 mins followed by addition of PMACI incubated for 6 hrs by qRT-PCR analysis; details: Homo sapiens
[22] = target: c-Jun N-terminal kinase, JNK (Homo sapiens) (UniProt P45983+P53779+P45984); assay: Inhibition of PMACI-induced phosphorylation of JNK in HMC1 cells at 12.5 to 50 uM pretreated for 30 mins followed by addition of PMACI incubated for 15 mins by Western blot analysis

- inhibition [3]: inactive
- inhibition [6]: Active
- inhibition [9]: Active
- inhibition [11]: Active
- inhibition [20]: Active
- inhibition [22]: inactive
Compound: O=C(/C=C/c1ccc(O)c(O)c1)O[C@@H](C(=O)O)[C@@H](OC(=O)/C=C/c1ccc(O)c(O)c1)C(=O)O [CICHORIC ACID]
- Activity (Mus musculus [1]): Active
- Activity [2]: Non-toxic
- Activity [4]: Non-toxic
- Activity (HMC1 [5]): Dose-dependent effect
- Activity (HMC1 [7]): Dose-dependent effect
- Activity (HMC1 [8]): Dose-dependent effect
- Activity [10]: Non-toxic
- Activity [12]: Non-toxic
- Activity (HMC1 [13]): Dose-dependent effect
- Activity [14]: Non-toxic
- inhibition (HMC1 [15]): inactive
- Activity (HMC1 [16]): Dose-dependent effect
- Activity [17]: Non-toxic
- Activity (Mus musculus [18]): Active
- Activity (HMC1 [19]): Active
- Activity (HMC1 [21]): Dose-dependent effect

From ChEMBL document CHEMBL3758130, “Effect of Chicoric Acid on Mast Cell-Mediated Allergic Inflammation in Vitro and in Vivo” (J Nat Prod, 2015)
